Test results as given in patent US20190365697A1, “Method for Treating Liver Dysfunction” (PROFEAT BIOTECHNOLOGY CO., LTD., priority 2017, published 2019).

Tested on: dogs, whose liver functions were not improved after the administration of SAMe
Test: Administration of SAMe followed by administration of Composition A1 to dogs; serum ALT, AST
Assay type: in vivo
Conditions: SAMe alone to dogs, clinically observed
Experimental: Therefore, Composition A1 was administered to 3 dogs, whose liver functions were not improved after the administration of SAMe. And the serum biochemistry values related to the liver function, ALT, AST and ALKP, were examined.

C[S+](CC[C@H](N)C(=O)[O-])C[C@H]1O[C@@H](n2cnc3c(N)ncnc32)[C@H](O)[C@@H]1O (stereo partly shown) [SAMe, S-adenosylmethionine]
improvement of liver functions: liver functions still cannot be improved
